Measurements as given in the SangsterLogP compilation.
Each block holds one compound with its values, some of them ahead of it.

How the values were obtained:
[1] = not given; remark: listed apart in the source
[2] = not given; remark: listed apart in the source
[3] = method code SF, from DOI: 10.1021/jm00237a002, PMID: 1133810; settings: pH 7.2
[4] = not given; remark: listed apart in the source
[5] = not given; remark: listed apart in the source
[6] = method code SF-AS, from Dallet, P.; Dubost, J.; Colleter, J.; Audry, E.; Creuzet, M. (1985). QSAR in a series of alpha-adrenolitic molecules: optimization of physicochemical parameters. Eur J Med Chem, 20(6)551-557.
[7] = method code SF-HPLC, from DOI: 10.1016/0378-5173(89)90028-8
[8] = method code SF-AS, from DOI: 10.1002/etc.5620180606
[9] = method code SF-AS, from DOI: 10.1021/jm00296a014, PMID: 5418493
[10] = not given; remark: listed apart in the source
[11] = method code SF-AS, from DOI: 10.1139/cjpp-75-12-1362, PMID: 9534947
[12] = method code SF-HPLC, from DOI: 10.1039/a702469j; settings: pH 7.0
[13] = not given; remark: listed apart in the source
[14] = not given; remark: listed apart in the source
[15] = not given; remark: listed apart in the source
[16] = method code SF-HPLC, from DOI: 10.1023/a:1015862319927, PMID: 2062808; settings: pH 7.4
[17] = method code SF-GLC, from DOI: 10.1016/0048-3575(76)90072-9
[18] = pH 7.4
[19] = method code SF-HPLC, from DOI: 10.1002/jps.10072, PMID: 11920751; settings: pH 7.4
[20] = method code G-GLC, from DOI: 10.1021/es00169a004
[21] = method code SF-AS, from DOI: 10.1016/0378-5173(84)90231-x
[22] = method code SF-HPLC, from DOI: 10.1016/j.ejpb.2013.06.022, PMID: 23958327; settings: pH 6.0
[23] = not given; remark: listed apart in the source
[24] = not given; remark: listed apart in the source
[25] = method code SF-AS, from DOI: 10.1016/0045-6535(95)00267-c
[26] = method code SF-GLC, from DOI: 10.1016/j.chemosphere.2013.04.065, PMID: 23732011
[27] = method code SF-RC, from DOI: 10.1016/s0969-8051(02)00326-8, PMID: 12234587; settings: pH 7.4

Compound: CCOP(=O)(NC(C)CC)Oc1cc(C)ccc1[N+](=O)[O-] (centres undefined)
logP: 2.73

Compound: c1ccc2c(c1)ccc1cc3ccc4ccccc4c3cc12
logP [1]: 6.84

Compound: Cc1c(N=C2NCCN2)ccc2c1NCCN2
logP [2]: 0.04

Compound: CCOP(=S)(NC(C)CC)Oc1cc(C)ccc1[N+](=O)[O-] (centres undefined)
logP: 4.62

Compound: Clc1cccc(-c2c(Cl)ccc(Cl)c2Cl)c1Cl
logP [4]: 6.04

Compound: CC12C=CC(C)(OO1)c1ccccc12
logP [5]: 2.17

Compound: Clc1ccc(Cl)c(-c2cccc(Cl)c2Cl)c1
logP [4]: 5.81

Compound: Nc1c(Cl)c(Cl)c(N)c2c1C(=O)c1ccccc1C2=O
logP [8]: 4.56

Compound: O=C(O)C1c2ccccc2Sc2ccccc21
logP [9]: 2.57

Compound: CCOP(=O)(OCC)C(C)(C)[N+]([O-])=Cc1cccnc1
logD [12]: 0.41

Compound: CC(C)NCC(O)COc1cccc2[nH]ccc12 (centres undefined)
logP [13]: 1.76

Compound: CCCSP(=S)(OCC)Oc1ccc(SC)cc1 (centres undefined)
logP: 4.9

Compound: CSC[S@](=O)C[C@H](C)NC(=O)/C=C/c1c(C)[nH]c(=O)[nH]c1=O
logD [18]: -0.7

Compound: Clc1cc(Cl)c(-c2c(Cl)cccc2Cl)c(Cl)c1
logP [20]: 5.37

Compound: COc1ccc(C=[N+]([O-])C(C)(C)C)cc1
logP [21]: 1.21

Compound: c1ccc2c(c1)-c1ccc3ccc4cccc5cc-2c1c3c45
logP [1]: 6.58

Compound: N#CCN(CCO)c1ccc(N=Nc2nc3ccc([N+](=O)[O-])cc3s2)cc1
logP [8]: 4.08

Compound: O=c1[nH]c2ccccc2n1C1CCNCC1
logP [23]: 1.14

Compound: C1=Cc2cccc3cccc1c23
logP [1]: 4.07

Compound: Clc1cc(Cl)c2[nH]c3c(Cl)cc(Cl)cc3c2c1
logP [24]: 5.75

Compound: CC(C)C(=O)OCC1OC(n2cc(I)c(=O)[nH]c2=O)C1O (centres undefined)
logD [16]: 0.83

Compound: Clc1cc2c(cc1Cl)=c1cc(Cl)c(Cl)cc1=2
logP [24]: 6.14

Compound: Clc1cc2c(cc1Cl)Oc1c(Cl)c(Cl)c(Cl)c(Cl)c1O2
logP [24]: 7.79

Compound: Cc1cc(C2CCCCC2)n(O)c(=O)c1
logD [22]: 2.3

Compound: C=CCOc1ccc(OCC=C)cc1
logP [26]: 3.5

Compound: CCOC(=O)O[C@]1(C(=O)COC(=O)CC)CC[C@H]2[C@@H]3CCC4=CC(=O)C=C[C@]4(C)[C@H]3[C@@H](O)C[C@@]21C
logD [22]: 2.9

Compound: Cc1c(N=C2NCCN2)ccc2c1NCCO2
logP [2]: 0.35

Compound: CN(C)c1ccc(-c2cc3ccc(I)cc3o2)cc1
logD [27]: 2.12

Compound: O=C(O)CCC12C=CC(CCC(=O)O)(OO1)c1ccccc12
logP [5]: -0.13

Compound: O=c1[nH]c2cc(Cl)ccc2n1C1CCNCC1
logP [23]: 1.59

Compound: c1ccc(N=Nc2ccccc2)cc1
logP [13]: 3.92

Compound: Clc1cc(Cl)cc(-c2cc(Cl)c(Cl)cc2Cl)c1
logP [4]: 5.68

Compound: CCCCOc1cnc(NS(=O)(=O)c2ccccc2)nc1
logD [3]: 1.41

Compound: Clc1cc(Cl)c(-c2c(Cl)c(Cl)cc(Cl)c2Cl)c(Cl)c1Cl
logP [20]: 7.21

Compound: CC12OOC(CCC(=O)O)(C=C1CCC(=O)O)c1ccccc12 (centres undefined)
logP [5]: 0.24

Compound: Clc1cc(Cl)c(Cl)c(-c2ccccc2)c1Cl
logP [20]: 5.94

Compound: O=C(c1ccc(O)cc1)c1ccc(Cl)cc1
logP [15]: 4

Compound: O=c1[nH]c2ccccc2n1C1=CCNCC1
logP [23]: 0.85

Compound: CSC[S@](=O)C[C@H](CO)NC(=O)/C=C/c1c(C)[nH]c(=O)[nH]c1=O
logD [18]: -1.71

Compound: CCOP(=O)(OCC)C(C)(C)[N+]([O-])=Cc1ccncc1
logD [12]: 0.32

Compound: CCOP(=O)(OCC)C(C)(C)[N+]([O-])=Cc1cc[n+]([O-])cc1
logD [12]: -0.68

Compound: COc1ccc(Cc2nccc3cc(OC)c(OC)cc23)cc1OC
logP [10]: 2.95

Compound: Cc1ccc(C=[N+]([O-])C(C)(C)C)cc1
logP [21]: 1.74

Compound: O=C(O)C1c2ccccc2-c2ccccc21
logP [9]: 2.8

Compound: O=C(O)C1c2ccccc2Oc2ccccc21
logP [9]: 2.23

Compound: CN(C)c1ccc(-c2cc3cc(I)ccc3o2)cc1
logD [27]: 2.35

Compound: C=CCOc1cccc(OCC=C)c1
logP [26]: 3.8

Compound: Oc1ccc(-c2cc3cc(I)ccc3o2)cc1
logD [27]: 2.97

Compound: Cc1c(N=C2NCCN2)ccc2nccnc12
logP [2]: 0.9

Compound: Nc1c(Oc2ccc(CN3CCCCCC3=O)cc2)cc(O)c2c1C(=O)c1ccccc1C2=O
logP [8]: 5.3

Compound: C=CCOc1ccc(OCCC)cc1
logP [26]: 2.4

Compound: CC1CCCCC1NC(=O)Nc1ccccc1 (centres undefined)
logP [25]: 3.09

Compound: CCCCCSCS(=O)CC(CO)NC(=O)/C=C/c1c(C)[nH]c(=O)[nH]c1=O (centres undefined)
logD [18]: 0.6

Compound: CCc1ccc(C=[N+]([O-])C(C)(C)C)cc1
logP [21]: 2.19

Compound: Cc1cc(OCCN(C)C)c(C(C)C)cc1OS(=O)(=O)CC12CCC(CC1=O)C2(C)C (centres undefined)
logP [6]: 4.37

Results, then the compound that gave them:

logD [3]: 0.86
Compound: CC(C)Oc1cnc(NS(=O)(=O)c2ccccc2)nc1

logP [6]: 1.64
Compound: CC(=O)Oc1ccc(OCCN(C)C)cc1C

logP [7]: 1.43
Compound: CCN(CC)C(=O)COC(=O)c1cn(CC)c2nc(C)ccc2c1=O

logP [6]: 4.25
Compound: Cc1cc(OCCNCC2CC(=O)c3ccccc3C2=O)c(C(C)C)cc1O (centres undefined)

logP [10]: 4.2
Compound: CCN(CC)Cc1cc(Nc2ccnc3cc(Cl)ccc23)ccc1O

logP [11]: 4.06
Compound: O=C(N/N=C/c1c(O)ccc2ccccc12)c1cccc(F)c1

logP [14]: 1.95
Compound: CNc1ccc(C(=O)OCCN(C)C)cc1

logP [15]: 5.92
Compound: CCCCc1oc2ccccc2c1C(=O)c1cc(I)c(O)c(I)c1

logP [11]: 3.04
Compound: Nc1ccc(C(=O)N/N=C/c2c(O)ccc3ccccc23)cc1

logD [16]: 1.24
Compound: O=C(OC[C@H]1O[C@@H](n2cc(I)c(=O)[nH]c2=O)C[C@@H]1O)c1ccc([N+](=O)[O-])cc1

logP [17]: 1.6
Compound: CCOC(=O)CN(C(=O)CCl)c1ccccc1

logD [19]: -0.3
Compound: CCCC(=O)OCC(CO)OCn1cnc2c(=O)[nH]c(N)nc21 (centres undefined)

logP [11]: 1.39
Compound: Cc1ncc(CO)c(/C=N/NC(=O)c2ccco2)c1O

logD [22]: 5.6
Compound: CCOC(=O)c1ccc(C#Cc2ccc3c(c2)C(C)(C)CCS3)nc1

logP [10]: 5.9
Compound: Cc1ccc(Cl)c(Nc2ccccc2C(=O)O)c1Cl

logD [19]: -0.78
Compound: CC(=O)OCC(COC(C)=O)OCn1cnc2c(=O)[nH]c(N)nc21

logP [7]: 1.23
Compound: CCn1cc(C(=O)OC)c(=O)c2ccc(C)nc21

logP [25]: 4.1
Compound: CCCCN(C)C(=O)Nc1ccc(Cl)c(Cl)c1

logP [17]: 2.75
Compound: CCOC(=O)CN(C(=O)CCl)c1ccccc1OC(C)C

logP [14]: 4.14
Compound: CCCCCNc1ccc(C(=O)OCCN(C)C)cc1

logD [3]: 1.14
Compound: CCCOc1cnc(NS(=O)(=O)c2ccccc2)nc1

logD [19]: 0.83
Compound: CCCCC(=O)OCC(COC(=O)CCCC)OCn1cnc2c(=O)[nH]c(N)nc21

logP [7]: 2.2
Compound: CCCC(=O)OCOC(=O)c1cn(CC)c2nc(C)ccc2c1=O

logP [17]: 3.37
Compound: CCOC(=O)CN(C(=O)CCl)c1ccccc1-c1ccccc1

logP [14]: 3.15
Compound: CCCNc1ccc(C(=O)OCCN(C)C)cc1

logP [15]: 4.87
Compound: CCCCc1oc2ccccc2c1C(=O)c1ccc(O)cc1

logP [13]: 1.77
Compound: CC1=CC(=O)c2cc(C)ccc2C1=O

logP [25]: 2.54
Compound: COc1ccc(Oc2ccc(NC(=O)N(C)C)cc2)cc1

logD [16]: 1.38
Compound: COc1ccc(C(=O)OCC2OC(n3cc(I)c(=O)[nH]c3=O)CC2O)cc1 (centres undefined)
